The source of these data is patent US20220227745A1, “Compounds For Modulating FXR” (NANJING RUIJIE PHARMA TECH CO., LTD., priority 2019, published 2022).

The target of experiment [1] is T1, hFXR-LBD (FXR-GAL4 chimeric receptor) (Homo sapiens, UniProt Q96RI1).
T1 construct: host or cells: HEK293T
T1 sequence (Q96RI1 262-486 limits assumed): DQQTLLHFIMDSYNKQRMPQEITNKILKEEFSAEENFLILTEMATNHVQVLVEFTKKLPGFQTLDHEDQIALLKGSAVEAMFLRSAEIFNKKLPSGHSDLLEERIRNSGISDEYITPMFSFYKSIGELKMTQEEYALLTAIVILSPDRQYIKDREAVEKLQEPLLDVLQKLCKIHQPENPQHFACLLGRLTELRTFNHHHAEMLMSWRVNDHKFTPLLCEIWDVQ
The experiment is described as follows: FXR Transactivation Assay (GAL4 luciferase reporter in HEK293T cells). The class given is cell-based. Here is the method: FXR Transactivation Assay
The present compounds were tested to assess their ability to stimulate FXR transactivation activity. The hFXR-LBD, coding sequence was inserted into the pBIND expression vector (Promega, E1581) to express FXR-GAL4 binding domain chimeric receptors. This expression vector and reporter vector (pGL4.35 which carry a stably integrated GAL4 promoter driven luciferase reporter gene) were co-transfected into HEK293T host cells. Upon agonist binding to the corresponding FXR-GAL4 chimeric receptor, the chimeric receptor binds to the GAL4 binding sites and stimulates the reporter gene.
All the working stock were shake for 5 min on plate shaker (QILINBEIER). Second, all cells were cultured as ATCC recommended. HEK293T cells were assayed in exponential growth phase. Removed culture medium from the flask and rinsed cells with PBS. Added TrypLE solution to the flask and make cells detach. Next, cells were washed once with complete growth medium. Then, cells were pelleted and washed twice with PBS to remove phenol red and resuspend them in medium to a proper concentration. Only cells with viability greater than 90% were used for assays. Seeded 6×10^6 HEK293T cells into a 100 mm dish and incubated at 37° C. under 5% CO2 atmosphere for 16 h. Third, Trans-IT reagent and Opti-MEM mix by inversion and incubate 5 min at room temperature. The cell transfection was performed by mixing DNA and the reagent mixture, as well as 6 μg GAL4-FXR plasmid or 2 μg pGL4.35 luciferase plasmid, respectively. The reagent mixture was added to a 100 mm dish and incubated for 4-7 hrs at 37° C. under 5% CO2 atmosphere. Fourth, transferred 75 nl compound dilutions into 384-well assay plates (PerkinElmer) and seeded HEK293T cells at 17,000 cells/well using phenol red-free DMEM containing 5% charcoal/dextran-treated FBS. Then, cells were incubated for 16-20 h at 37° C. under 5% CO2 atmosphere. Finally, added 25 μl Steady-Glo™ Luciferase Assay Reagent into each well of 384-well assay plate, and then shake plate for 5 min protected from light on a plate shaker. Then, the luminescence value was read on Evision 2104 plate reader (PerkinElmer).
The activity ratio was calculated as follow: […]
RLU: Resulting Luminescence
RLUpositive: The average RLU for the positive controls across the plate.
RLUvehicle: The average RLU for negative controls across the plate.
(§1) EC50 was calculated by fitting % Activity values and log of compound concentrations to nonlinear regression (dose response-variable slope) with GraphPad 5.0.
(§2) X: log of compound concentration.
(In general: A reporter such as luciferase makes a cellular process visible.)

Experiment [2] has as its target T2, FXR LBD, GST (Homo sapiens, UniProt Q96RI1).
T2 construct: FXR LBD, GST; purchased Invitrogen PV4834
T2 sequence (Q96RI1 262-486 limits assumed): T1 sequence (Q96RI1 262-486 limits assumed)
Put plainly: FXR Binding Assay (TR-FRET, Fluorescein-SRC2-2 coactivator peptide). To be noted: for Emax: % Activity relative to positive control, read-out: Pct Effect (Emax %); for EC50: TR-FRET FXR LBD coactivator recruitment. Here is the method:
The interaction between the present compounds and FXR are evaluated by Time-Resolved Fluorescence Resonance Energy Transfer (TR-FRET) competition assay. FRET describes a radiation-free energy transfer between two chromophores: a donor fluorophore in its excited state can transfer energy to an acceptor fluorophore in close proximity (typically <10 nm). In contrast to standard FRET, TR-FRET unites time-resolved fluorescence (TRF) and the FRET principle, TRF use a long-lifetime lanthanide chelate as the donor species, while lanthanide chelates are unique in that their excited-state lifetime can be on the order of a millisecond or longer. Suitable neighbors for FRET are known in the art and can be obtained.
The assay was performed in following steps: first, prepared a) 1 mM compounds (100×) in DMSO; b) reaction buffer containing 1× buffer G with 10 mM DTT; c) 4×FXR LBD (20 nM) in 1× chilled buffer G. Second, performed 3-fold serial dilution of 1 mM test compounds using DMSO from 1 mM, 10 doses in a 96-well plate (249944, Nunc). Then, used complete buffer G to dilute each 100× compounds serial dilution to 2×. Third, added 10 μl 2× compound serial dilution into 384-well plate (3677, Corning). Then, added 5 μl FXR LBD into the assay plate. Prepared a solution containing 2 μM fluorescein-SRC2-2 (4×) and 20 nM Tb anti-GST antibody (4×) in buffer G at room temperature and started the reaction by adding 5 μl the above solution into each well of the assay plate. Centrifuged the assay plates at 1000 g for 1 min and then incubated at room temperature for lhr protected from light. Finally, the plate was read at wavelengths of 520 nm and 495 nm on Envision 2104 plate reader (PerkinElmer).
A ratio (Ratio520 nm/495 nm−Ratiobackground) was calculated for each well. The activity ratio was calculated as follow: […]
Ratiopositive: The average ratio for the positive control across the plate.
Ratiovehicle: The average ratio for negative controls across the plate.
as §1, §2
For orientation: In TR-FRET formats the signal depends on donor and acceptor labels being close together.

`Cn1cc(C(=O)O)c2ccc(N3CCN(CCc4c(-c5c(Cl)cccc5Cl)noc4C4CC4)CC3)cc21` [Example I1, 6-(4-(2-(5-cyclopropyl-3-(2,6-dichlorophenyl)isoxazol-4-yl)ethyl)piperazin-1-yl)-1-methyl-1H-indole-3-carboxylic Acid]: the EC50 – broadly, the concentration giving half of the maximal effect – in experiment [1] turned out to be 0.101 µM. In addition, in experiment [2], the Emax – broadly, the size of the effect at its maximum, as opposed to the concentration needed – was 161% and the EC50 was found to be 0.058 µM.

Regarding `Cn1cc(C(=O)O)c2ccc(N3CCN(C(=O)Cc4c(-c5c(Cl)cccc5Cl)noc4C4CC4)CC3)cc21` [Example I2, 6-(4-(2-(5-cyclopropyl-3-(2,6-dichlorophenyl)isoxazol-4-yl)acetyl)piperazin-1-yl)-1-methyl-1H-indole-3-carboxylic Acid], it took 11.1 µM to reach a half-maximal effect in experiment [1] (EC50). In addition, in experiment [2], the Emax amounted to 75.1% and the response was half-maximal at 5.11 µM (EC50).

Turning to `CC(C)c1onc(-c2c(Cl)cccc2Cl)c1CCN1CCN(c2ccc3c(C(=O)O)cn(C)c3c2)CC1` [Example I3, 6-(4-(2-(3-(2,6-dichlorophenyl)-5-isopropylisoxazol-4-yl)ethyl)piperazin-1-yl)-1-methyl-1H-indole-3-carboxylic Acid], the EC50 in experiment [1] was found to be 0.239 µM. In experiment [2], the Emax was 192% and the EC50 stood at 0.091 µM.

`O=C(O)c1ccc2nc(N3CCN(CCc4c(-c5c(Cl)cccc5Cl)noc4C4CC4)CC3)sc2c1` [Example I4, 2-(4-(2-(5-cyclopropyl-3-(2,6-dichlorophenyl)isoxazol-4-yl)ethyl)piperazin-1-yl)benzo[d]thiazole-6-carboxylic Acid]: the EC50 in experiment [1] was 1.5 µM. Moreover, in experiment [2], the Emax worked out at 89.8% and a half-maximal effect (EC50) was put at 0.244 µM.

Consider `O=C(O)c1cc(F)c2nc(N3CCN(CCc4c(-c5ccccc5OC(F)(F)F)noc4C4CC4)CC3)sc2c1` [Example I5, 2-(4-(2-(5-cyclopropyl-3-(2-(trifluoromethoxy)phenyl)isoxazol-4-yl)ethyl)piperazin-1-yl)-4-fluorobenzo[d]thiazole-6-carboxylic Acid], for which the concentration giving a half-maximal response (EC50) in experiment [1] is 2.38 µM. In experiment [2], the Emax came out at 116% and the EC50 was 0.297 µM.

`O=C(O)c1ccc2cc(N3CCN(CCc4c(-c5c(Cl)cccc5Cl)noc4C4CC4)CC3)ccc2n1` [Example I6, 6-(4-(2-(5-cyclopropyl-3-(2,6-dichlorophenyl)isoxazol-4-yl)ethyl)piperazin-1-yl)quinoline-2-carboxylic Acid] returned an EC50 in experiment [1] of 0.459 µM. Further, in experiment [2], the Emax came to 142% and the EC50 was 0.118 µM.

On to `COC(=O)c1ccc2cc(N3CCN(CCc4c(-c5c(Cl)cccc5Cl)noc4C4CC4)C(C)C3)ccc2n1` (centres unmarked) [Example I53, methyl 6-(4-(2-(5-cyclopropyl-3-(2,6-dichlorophenyl)isoxazol-4-yl)ethyl)-3-methylpiperazin-1-yl)quinoline-2-carboxylate], for which, in experiment [2], the maximal effect (Emax) was determined as 68.4% and the EC50 was determined as 0.436 µM.

With `CC1CCN(c2ccc3c(C(=O)O)cn(C)c3c2)CCN1CCc1c(-c2c(Cl)cccc2Cl)noc1C1CC1` (centres unmarked) [Example I55, 6-(4-(2-(5-cyclopropyl-3-(2,6-dichlorophenyl)isoxazol-4-yl)ethyl)-5-methyl-1,4-diazepan-1-yl)-1-methyl-1H-indole-3-carboxylic Acid], in experiment [2], the Emax was determined as 70.9% and the EC50 turned out to be 2.77 µM.

In the case of `COC(=O)c1cn(C)c2cc(N3CCC(C)N(CCc4c(-c5c(Cl)cccc5Cl)noc4C4CC4)CC3)ccc12` (centres unmarked) [Example I56, methyl 6-(4-(2-(5-cyclopropyl-3-(2,6-dichlorophenyl)isoxazol-4-yl)ethyl)-5-methyl-1,4-diazepan-1-yl)-1-methyl-1H-indole-3-carboxylate], in experiment [2], the EC50 was greater than 10 µM.

In the case of `CC1CC(c2ccc3c(C(=O)O)cn(C)c3c2)CCN1CCc1c(-c2c(Cl)cccc2Cl)noc1C1CC1` (centres unmarked) [Example I57, 6-(1-(2-(5-cyclopropyl-3-(2,6-dichlorophenyl)isoxazol-4-yl)ethyl)-2-methylpiperidin-4-yl)-1-methyl-1H-indole-3-carboxylic Acid], in experiment [2], the Emax was found to be 180% and the EC50 came to 0.384 µM.

`COC(=O)c1cn(C)c2cc(N3CCC(N(C)Cc4c(-c5c(Cl)cccc5Cl)noc4C4CC4)CC3)ccc12` [Example I59, methyl 6-(4-(((5-cyclopropyl-3-(2,6-dichlorophenyl)isoxazol-4-yl)methyl)(methyl)amino)piperidin-1-yl)-1-methyl-1H-indole-3-carboxylate] showed an EC50 in experiment [2] greater than 10 µM.

For `O=C(O)c1cc(F)c2nc(N3CC4CC(C3)C4OCc3c(-c4ccccc4OC(F)(F)F)noc3C3CC3)sc2c1` (centres unmarked) [Example I60, 2-(6-((5-cyclopropyl-3-(2-(trifluoromethoxy)phenyl)isoxazol-4-yl)methoxy)-3-azabicyclo[3.1.1]heptan-3-yl)-4-fluorobenzo[d]thiazole-6-carboxylic Acid], in experiment [2], the maximum response (Emax) was 35.3% and a half-maximal effect (EC50) was put at 0.732 µM.

For `Cn1cc(C(=O)O)c2ccc(N3CC4CC(C3)C4OCc3c(-c4c(Cl)cccc4Cl)noc3C3CC3)cc21` (centres unmarked) [Example I61, 6-(6-((5-cyclopropyl-3-(2,6-dichlorophenyl)isoxazol-4-yl)methoxy)-3-azabicyclo[3.1.1]heptan-3-yl)-1-methyl-1H-indole-3-carboxylic Acid], in experiment [2], the Emax amounted to 67.7% and the midpoint of the response, the EC50, lay at 0.616 µM.

On to `Cn1cc(C(=O)O)c2c(F)cc(N3CC4CC(C3)C4OCc3c(-c4c(Cl)cccc4Cl)noc3C3CC3)cc21` (centres unmarked) [Example I63, 6-(6-((5-cyclopropyl-3-(2,6-dichlorophenyl)isoxazol-4-yl)methoxy)-3-azabicyclo[3.1.1]heptan-3-yl)-4-fluoro-1-methyl-1H-indole-3-carboxylic Acid], for which, in experiment [2], the Emax was 106% and the EC50 was determined as 0.102 µM.

Take `O=C(O)c1ccc2nc(N3CC4CC(C3)C4OCc3c(-c4c(Cl)cccc4Cl)noc3C3CC3)sc2c1` (centres unmarked) [Example I65, 2-(6-((5-cyclopropyl-3-(2,6-dichlorophenyl)isoxazol-4-yl)methoxy)-3-azabicyclo[3.1.1]heptan-3-yl)benzo[d]thiazole-6-carboxylic Acid]: the EC50 in experiment [2] was greater than 10 µM.

In experiment [2], `O=C(O)c1ccc2nc(N3CC4CC(C3)C4OCc3c(-c4ccccc4OC(F)(F)F)noc3C3CC3)sc2c1` (centres unmarked) [Example I66, 2-(6-((5-cyclopropyl-3-(2-(trifluoromethoxy)phenyl)isoxazol-4-yl)methoxy)-3-azabicyclo[3.1.1]heptan-3-yl)benzo[d]thiazole-6-carboxylic Acid] came in with an EC50 greater than 10 µM.

Regarding `O=C(O)c1ccc2nc(N3CC4CC(C3)C4OCc3c(-c4c(Cl)cccc4Cl)noc3C3CC3)sc2c1` (centres unmarked) [Example I67, 2-(6-((5-cyclopropyl-3-(2,6-dichlorophenyl)isoxazol-4-yl)methoxy)-3-azabicyclo[3.1.1]heptan-3-yl)benzo[d]thiazole-6-carboxylic Acid], the EC50 in experiment [2] is greater than 10 µM.
